Type in all cases: ADME
For one series, the target named is T1, Cytochrome P450 1A2 (Homo sapiens, UniProt P05177).
T1 sequence (P05177 whole entry): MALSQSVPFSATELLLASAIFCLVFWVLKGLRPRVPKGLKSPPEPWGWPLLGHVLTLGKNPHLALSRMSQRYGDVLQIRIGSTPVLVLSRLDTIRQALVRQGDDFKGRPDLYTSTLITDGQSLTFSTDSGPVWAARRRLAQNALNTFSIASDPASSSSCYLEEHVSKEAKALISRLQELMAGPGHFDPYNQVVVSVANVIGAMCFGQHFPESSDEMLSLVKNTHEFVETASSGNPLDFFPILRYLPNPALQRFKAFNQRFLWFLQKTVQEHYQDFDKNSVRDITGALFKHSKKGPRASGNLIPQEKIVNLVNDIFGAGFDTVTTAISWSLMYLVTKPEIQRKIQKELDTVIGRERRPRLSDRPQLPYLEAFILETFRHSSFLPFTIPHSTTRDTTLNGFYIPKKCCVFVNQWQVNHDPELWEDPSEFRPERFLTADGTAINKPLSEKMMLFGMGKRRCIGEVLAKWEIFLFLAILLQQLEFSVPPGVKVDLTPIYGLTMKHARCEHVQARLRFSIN
In words: Clinically relevant substrates of human liver microsomal P450 enzymes, isoform CYP1A2. As to conditions: microsomes.

A further series deals with Sulfotransferase 1A1 (Homo sapiens, UniProt P50225). Description: Major substrate of human cytosolic sulfotransferase SULT1A1.
Sequence of Sulfotransferase 1A1 (P50225 whole entry): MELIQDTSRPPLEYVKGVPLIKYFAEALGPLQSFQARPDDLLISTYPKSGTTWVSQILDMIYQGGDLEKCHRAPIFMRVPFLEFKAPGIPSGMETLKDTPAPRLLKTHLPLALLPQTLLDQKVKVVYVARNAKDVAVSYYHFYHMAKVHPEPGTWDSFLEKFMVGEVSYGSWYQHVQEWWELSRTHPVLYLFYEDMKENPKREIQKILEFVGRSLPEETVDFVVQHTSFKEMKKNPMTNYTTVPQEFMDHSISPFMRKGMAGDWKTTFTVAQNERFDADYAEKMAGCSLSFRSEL
Series [1] addresses T2, UDP-glucuronosyltransferase 1A8 (Homo sapiens, UniProt Q9HAW9).
T2 sequence (Q9HAW9 whole entry): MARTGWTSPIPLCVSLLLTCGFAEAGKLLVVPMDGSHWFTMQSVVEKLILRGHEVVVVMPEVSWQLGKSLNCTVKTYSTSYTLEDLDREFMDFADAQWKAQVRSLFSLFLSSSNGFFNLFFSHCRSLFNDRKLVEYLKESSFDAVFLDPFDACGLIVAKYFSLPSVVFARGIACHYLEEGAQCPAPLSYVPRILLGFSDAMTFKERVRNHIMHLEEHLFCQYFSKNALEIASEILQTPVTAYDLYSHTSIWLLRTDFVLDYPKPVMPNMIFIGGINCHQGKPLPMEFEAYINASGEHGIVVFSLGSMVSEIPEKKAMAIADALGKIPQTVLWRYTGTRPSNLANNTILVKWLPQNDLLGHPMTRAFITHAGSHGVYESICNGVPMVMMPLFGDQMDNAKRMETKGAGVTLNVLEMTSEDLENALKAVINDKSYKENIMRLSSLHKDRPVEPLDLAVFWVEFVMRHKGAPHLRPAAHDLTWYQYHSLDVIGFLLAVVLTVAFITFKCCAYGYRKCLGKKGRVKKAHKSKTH
In words: Substrate of human UDP-glucuronosyltransferase UGT1A8.

Series [2] concerns the target T3, UDP-glucuronosyltransferase 2B7 (Homo sapiens, UniProt P16662).
T3 sequence (P16662 whole entry): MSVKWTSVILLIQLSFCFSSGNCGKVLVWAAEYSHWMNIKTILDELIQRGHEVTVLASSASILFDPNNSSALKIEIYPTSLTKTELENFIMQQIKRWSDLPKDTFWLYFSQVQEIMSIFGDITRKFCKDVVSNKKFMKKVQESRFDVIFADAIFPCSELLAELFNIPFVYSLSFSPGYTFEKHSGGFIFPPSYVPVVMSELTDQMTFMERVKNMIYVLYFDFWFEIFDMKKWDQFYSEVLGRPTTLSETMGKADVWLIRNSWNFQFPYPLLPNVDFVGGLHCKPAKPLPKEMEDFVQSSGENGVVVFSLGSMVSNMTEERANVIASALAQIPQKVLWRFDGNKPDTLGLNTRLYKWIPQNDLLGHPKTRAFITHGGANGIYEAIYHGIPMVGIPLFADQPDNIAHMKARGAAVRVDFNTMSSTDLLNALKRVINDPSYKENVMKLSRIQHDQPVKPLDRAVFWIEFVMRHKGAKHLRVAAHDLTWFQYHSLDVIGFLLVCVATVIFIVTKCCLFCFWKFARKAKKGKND
In words: Substrate of human UDP-glucuronosyltransferase UGT2B7.

A further series addresses T4, Sulfotransferase 1E1 (Homo sapiens, UniProt P49888).
T4 sequence (P49888 whole entry): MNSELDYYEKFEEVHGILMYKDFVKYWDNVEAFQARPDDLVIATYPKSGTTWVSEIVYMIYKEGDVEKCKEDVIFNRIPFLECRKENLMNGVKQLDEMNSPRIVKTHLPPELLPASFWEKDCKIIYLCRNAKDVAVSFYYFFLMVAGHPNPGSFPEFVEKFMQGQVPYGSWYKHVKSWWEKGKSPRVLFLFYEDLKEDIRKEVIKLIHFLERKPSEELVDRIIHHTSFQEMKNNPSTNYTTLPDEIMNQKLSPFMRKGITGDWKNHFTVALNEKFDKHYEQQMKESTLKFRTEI
In words: Major substrate of human cytosolic sulfotransferase SULT1E1.

Series [3] deals with T5, UDP-glucuronosyltransferase 1A9 (Homo sapiens, UniProt O60656).
T5 sequence (O60656 whole entry): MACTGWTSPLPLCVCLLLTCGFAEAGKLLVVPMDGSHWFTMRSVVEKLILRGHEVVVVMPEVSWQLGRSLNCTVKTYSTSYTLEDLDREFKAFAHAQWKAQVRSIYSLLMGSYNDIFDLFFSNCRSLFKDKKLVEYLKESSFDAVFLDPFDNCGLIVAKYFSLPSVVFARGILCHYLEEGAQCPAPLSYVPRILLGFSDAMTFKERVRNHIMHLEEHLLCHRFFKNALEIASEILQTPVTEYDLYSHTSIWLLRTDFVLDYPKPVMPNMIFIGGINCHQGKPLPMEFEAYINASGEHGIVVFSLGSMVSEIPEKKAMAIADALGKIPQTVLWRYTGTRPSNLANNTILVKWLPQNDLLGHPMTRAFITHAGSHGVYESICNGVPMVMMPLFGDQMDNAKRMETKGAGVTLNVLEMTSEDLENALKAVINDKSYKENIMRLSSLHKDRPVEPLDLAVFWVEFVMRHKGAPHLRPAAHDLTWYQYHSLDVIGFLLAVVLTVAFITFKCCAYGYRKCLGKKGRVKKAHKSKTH
Description: Substrate of human UDP-glucuronosyltransferase UGT1A9.

Series [4] addresses T6, Glutathione S-transferase A1 (Homo sapiens, UniProt P08263).
T6 sequence (P08263 whole entry): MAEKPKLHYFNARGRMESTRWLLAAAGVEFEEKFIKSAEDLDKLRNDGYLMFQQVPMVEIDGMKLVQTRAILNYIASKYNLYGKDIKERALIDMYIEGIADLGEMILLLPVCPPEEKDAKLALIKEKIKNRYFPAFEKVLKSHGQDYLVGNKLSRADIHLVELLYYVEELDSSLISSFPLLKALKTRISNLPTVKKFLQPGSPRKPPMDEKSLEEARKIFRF
In words: Substrates for human cytosolic glutathione transferase GSTA1.

In the next series the target is T7, Sulfotransferase 2A1 (Homo sapiens, UniProt Q06520).
T7 sequence (Q06520 whole entry): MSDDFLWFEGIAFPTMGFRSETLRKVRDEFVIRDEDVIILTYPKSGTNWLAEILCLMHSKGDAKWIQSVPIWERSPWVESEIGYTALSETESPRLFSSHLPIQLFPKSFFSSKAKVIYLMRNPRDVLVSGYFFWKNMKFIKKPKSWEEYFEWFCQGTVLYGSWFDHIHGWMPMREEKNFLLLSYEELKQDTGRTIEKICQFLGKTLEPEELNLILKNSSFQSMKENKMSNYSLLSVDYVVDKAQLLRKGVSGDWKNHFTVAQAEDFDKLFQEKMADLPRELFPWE
Description: Major substrate of human cytosolic sulfotransferase SULT2A1.

Consider 43 molecules from ChEMBL document CHEMBL1743201, “Casarett and Doull's Toxicology The Basic Science of Poisons, 7th edition” (2008).

Turning to `CCOc1ccc(NC(C)=O)cc1` [PHENACETIN], on Cytochrome P450 1A2, the Activity entry was “Substrate”. Take `Cc1ccc(O)cc1` [p-CRESOL]: the Activity entry on Sulfotransferase 1A1 is listed as “Substrate”. `Oc1cccc2cccnc12` [OXYQUINOLINE]: in series [1], the Activity result is reported as “Substrate”. As for `Nc1c2c(nc3ccccc13)CCCC2` [TACRINE], at Cytochrome P450 1A2, the Activity entry is recorded as “Substrate”. In the case of `Clc1ccc2nsnc2c1NC1=NCCN1` [TIZANIDINE], the Activity entry on Cytochrome P450 1A2 was “Substrate”. In the case of `O=C1c2ccccc2C(=O)c2ccccc21` [ANTHRAQUINONE], the Activity entry in series [1] was “Substrate”. For the molecule `CC(C(=O)O)c1ccc2oc(-c3ccc(Cl)cc3)nc2c1` (stereo not given) [BENOXAPROFEN], in series [2], the Activity result is “Substrate”. For the molecule `CC/C(=C(\c1ccccc1)c1ccc(OCCN(C)C)cc1)c1ccccc1` [TAMOXIFEN], the Activity entry on Sulfotransferase 1E1 is “Substrate”.

Take `C[C@]12CCc3c(ccc4cc(O)ccc34)[C@@H]1CCC2=O` [EQUILENIN]: the Activity result at Sulfotransferase 1E1 is “Substrate”. With `O=C(O)c1cc(-c2ccc(F)cc2F)ccc1O` [DIFLUNISAL], the Activity result in series [3] and in series [1] was “Substrate” throughout.

Take `Cc1[nH]cnc1CN1CCc2c(c3ccccc3n2C)C1=O` [ALOSETRON]: the Activity entry at Cytochrome P450 1A2 is “Substrate”. Regarding `O=C(O)Cc1cn(-c2ccc(O)cc2)nc1-c1ccc(Cl)cc1`, the Activity entry on Sulfotransferase 1E1 is “Substrate”. Turning to `O=C(O)c1ccccc1O` [SALICYLIC ACID], the Activity result in series [3] was “Substrate”. For the molecule `Cn1c(=O)c2[nH]cnc2n(C)c1=O.O` [THEOPHYLLINE], on Cytochrome P450 1A2, the Activity entry is listed as “Substrate”. Turning to `CN1CCc2cccc3c2[C@H]1Cc1ccc(O)c(O)c1-3` [APOMORPHINE], the Activity entry on Sulfotransferase 1A1 was “Substrate”. Regarding `CC(C)OC(=O)C(C)(C)Oc1ccc(C(=O)c2ccc(Cl)cc2)cc1` [FENOFIBRATE], the Activity result in series [3] was “Substrate”. On to `Cn1c(N)nc2ncc(-c3ccccc3)cc21` [2-AMINO-1-METHYL-6- PHENYLIMIDAZO[4,5- B]PYRIDINE], for which the Activity result in series [4] was “Substrate”. As to `C[C@]12CC[C@@H]3c4ccc(O)c(O)c4CC[C@H]3[C@@H]1CC[C@@H]2O`, on Sulfotransferase 1E1, the Activity entry is given as “Substrate”. On to `CCCCNc1cc(C(=O)O)cc(S(N)(=O)=O)c1Oc1ccccc1` [BUMETANIDE], for which, in series [3], the Activity entry was “Substrate”. For the molecule `CC(C)c1cccc(C(C)C)c1O` [PROPOFOL], the Activity result in series [3] is recorded as “Substrate”. Regarding `Nc1cc(N2CCCCC2)nc(N)[n+]1[O-]` [MINOXIDIL], the Activity result on Sulfotransferase 1A1 is “Substrate”. As to `C=CCN1CC[C@]23c4c5ccc(O)c4O[C@H]2C(=O)CC[C@@]3(O)[C@H]1C5` [NALOXONE], the Activity result in series [2] is “Substrate”.

As to `C[C@]12CC[C@@H]3c4cc(O)c(O)cc4CC[C@H]3[C@@H]1CCC2=O` [2-HYDROXYESTRONE], the Activity result on Sulfotransferase 1E1 is recorded as “Substrate”.

Turning to `CC(C(=O)O)c1ccc(C(=O)c2ccccc2)s1` (stereo not given) [TIAPROFENIC ACID], the Activity entry in series [2] is “Substrate”. On to `CN1CC[C@]23c4c5ccc(O)c4O[C@H]2[C@@H](O[C@@H]2O[C@H](C(=O)O)[C@@H](O)[C@H](O)[C@H]2O)C=C[C@H]3[C@H]1C5` [MORPHINE GLUCURONIDE], for which the Activity entry in series [2] is recorded as “Substrate”. As to `CS(=O)(=O)OCCCCOS(C)(=O)=O` [BUSULFAN], the Activity result in series [4] is reported as “Substrate”. Turning to `CNCC[C@H](Oc1cccc2ccccc12)c1cccs1` [DULOXETINE], the Activity result on Cytochrome P450 1A2 was “Substrate”. Consider `Cc1cc(CC(=O)O)n(C)c1C(=O)c1ccc(Cl)cc1` [ZOMEPIRAC], for which the Activity result in series [2] is “Substrate”. For `Cn1c(NO)nc2ncc(-c3ccccc3)cc21`, the Activity entry on Sulfotransferase 1A1 was “Substrate”. Take `CC(C)[N+](=O)[O-]`: the Activity result on Sulfotransferase 1A1 is listed as “Substrate”. `O=C(O)c1cccnc1Nc1cccc(C(F)(F)F)c1` [NIFLUMIC ACID]: the Activity entry in series [1] is on record as “Substrate”. For the molecule `Cc1cn([C@H]2C[C@H](N=[N+]=[N-])[C@@H](CO)O2)c(=O)[nH]c1=O` [ZIDOVUDINE], the Activity entry in series [2] was “Substrate”. For `Cn1c(=O)c2c(ncn2C)n(C)c1=O` [CAFFEINE], at Cytochrome P450 1A2, the Activity result is reported as “Substrate”. As to `OC1c2ccc3c4ccccc4c4ccccc4c3c2C2OC2C1O` (stereo not given) [BENZO[G]CHRYSENE DIOL EPOXIDE], the Activity result in series [4] was “Substrate”.

`CC(C)(Oc1ccc(Cl)cc1)C(=O)O` [CLOFIBRIC ACID]: the Activity entry in series [2] and in series [1] was “Substrate” throughout. Take `C[C@]12CC[C@@H]3c4cc(O)c(O)cc4CC[C@H]3[C@@H]1CC[C@@H]2O`: on Sulfotransferase 1E1, the Activity entry is “Substrate”.

In the case of `CCN(CC)CCNc1ccc(CO)c2sc3ccccc3c(=O)c12` [HYCANTHONE], at Sulfotransferase 2A1, the Activity entry is “Substrate”. As to `O=C1C[C@@H](c2ccc(O)cc2)Oc2cc(O)cc(O)c21` [NARINGENIN], the Activity entry on Sulfotransferase 1E1 was “Substrate”. As for `CCCC1O[C@@H]2C[C@H]3[C@@H]4CCC5=CC(=O)C=C[C@]5(C)[C@H]4[C@@H](O)C[C@]3(C)[C@]2(C(=O)CO)O1` (stereo not given in full) [BUDESONIDE], the Activity entry on Sulfotransferase 2A1 was “Substrate”. With `CC(C)(Oc1ccc(C2CC2(Cl)Cl)cc1)C(=O)O` (stereo not given) [CIPROFIBRATE], the Activity entry in series [1] is given as “Substrate”. For `OCc1c2ccccc2c2ccc3cccc4ccc1c2c43`, the Activity entry at Sulfotransferase 2A1 is on record as “Substrate”. With `OC1c2ccc3ccc4ccccc4c3c2C2OC2C1O` (stereo not given) [BENZO[C]PHENANTHRENE DIOL EPOXIDE], the Activity entry in series [4] is reported as “Substrate”. Take `CCc1ccc(O)cc1`: the Activity entry on Sulfotransferase 1A1 was “Substrate”.
